Test results taken from patent US6528516B1, “Methods for reducing intraocular pressure using A3 adenosine receptor antagonists” (Trustees of the University of Pennsylvania, The Center for …, priority 1998, dated 2003).
“Also recorded” adds a separate entry of the source.

How the values were obtained:
A1 receptors = target: T1, A1 receptors (Rattus norvegicus, UniProt P25099); assay: Radioligand binding, [3H]R-PIA, rat cerebral cortex membranes
T1 construct: A1 receptors from rat cerebral cortex membranes; from tissue; host or cells: rat cerebral cortex membranes
T1 sequence (P25099 1-326): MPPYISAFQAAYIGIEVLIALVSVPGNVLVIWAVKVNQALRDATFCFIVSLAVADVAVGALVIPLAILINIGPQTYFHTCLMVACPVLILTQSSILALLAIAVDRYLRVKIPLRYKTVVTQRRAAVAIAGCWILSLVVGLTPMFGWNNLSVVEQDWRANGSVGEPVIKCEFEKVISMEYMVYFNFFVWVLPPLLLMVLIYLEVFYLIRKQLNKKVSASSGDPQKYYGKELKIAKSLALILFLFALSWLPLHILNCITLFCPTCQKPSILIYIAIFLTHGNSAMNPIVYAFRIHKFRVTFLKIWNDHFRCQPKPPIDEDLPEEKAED
Method: (§1) Radioligand binding studies. Binding of [^3H]R-N^6-phenylisopropyladenosine ([^3H]R-PIA) to A1 receptors from rat cerebral cortex membranes and of [^3H]-2-[4-[(2-carboxyethyl)phenyl]ethylamino]-5′-N-ethylcarbamoyladenosine ([^3H]CGS 21680) to A2A receptors from rat striatal membranes was performed as described previously (Schwabe et al., Naunyn Schmiedeberg Arch. Pharmacol. 313:179-187, 1980; Jarvis et al., J. Pharmacol. Exp. Ther. 251:888-893, 1989) Adenosine deaminase (3 units/mL) was present during the preparation of the brain membranes, in a pre-incubation of 30 min at 30° C., and during the incubation with the radioligands. Nonspecific binding was determined in the presence of 10 μM (A1 receptors) or 20 μM (A2A receptors)2-chloroadenosine.
(§2) All non-radioactive compounds were initially dissolved in DMSO, and diluted with buffer to the final concentration, where the amount of DMSO never exceeded 1%. Incubations were terminated by rapid filtration over Whatman GF/B filters, using a Brandell cell harvester (Brandell, Gaithersburg, MD). The tubes were rinsed three times with 3 mL buffer each.
(§3) At least five different concentrations of competitor, spanning 3 orders of magnitude adjusted appropriately for the IC50 of each compound, were used.

[1] = Oxidation of 1-methyl-1,4-dihydropyridine in rat brain homogenate; type: in vitro ADME; conditions: rat brain homogenate supernatant, pH 7.4, 37 C, read-out: t½ of oxidation to pyridinium salt 11
Method: The rat brain homogenate was prepared by the following method. One rat ([…]) was killed and the brain (weighing 2.26 g) was removed, and homogenized in 12 mL PBS (Biofluids, Inc., 1×pH 7.4). The homogenate was centrifuged at 12,000×rpm, and the supernatant was used. 5 mg of 24 dissolved in 0.2 mL of DMSO was mixed with 10 mL of brain homogenate (initial concentration of 1.27 mM), which was previously equilibrated to 37° C. in a water bath incubator, and shaking was continued at that temperature. Aliquots of 500 μL were withdrawn at 2, 4, 8, 16, 32, 64, 128, 256, 768 min (2×each) from the test medium, added immediately to 3 mL of ice-cold ethyl ether, shaken vigorously, and placed in a freezer. When all samples had been collected, and the ether layer of each sample was separated. After evaporation of the ether, each residue was dissolved in 200 μL methanol, filtered through Whatman 1 filter paper and analyzed by HPLC.
Pyridinium salt 11 could be generated through oxidation of the corresponding reduced precursor, 1-methyl-2,4-diethyl-3-(ethylsulfanylcarbonyl)-5-ethyloxycarbonyl-6-phenyl-1,4-dihydropyridine, 24. The conversion of 24 to 11 by chemical means (iodine in nitromethane) and during incubation at 37 C with rat brain membranes, to simulate in vivo conditions, was studied. The chemical conversion occurred readily, and the time course of the biochemical oxidation was recorded . […]

A2A receptors = target: T2, A2A receptors (Rattus norvegicus, UniProt P30543); assay: Radioligand binding, [3H]CGS 21680, rat striatal membranes; conditions: at 100 μM
T2 construct: to A2A receptors from rat striatal membranes; from tissue; host or cells: rat striatal membranes
Method: as §1, §2, §3

human A3 receptor = target: T3, human A3 receptor (Homo sapiens, UniProt P0DMS8); assay: Radioligand binding, [125I]AB-MECA, HEK-293 cell membranes; design: host or cells: HEK-293; conditions: read-out: Ki(hA3)
T3 sequence (P0DMS8 1-318): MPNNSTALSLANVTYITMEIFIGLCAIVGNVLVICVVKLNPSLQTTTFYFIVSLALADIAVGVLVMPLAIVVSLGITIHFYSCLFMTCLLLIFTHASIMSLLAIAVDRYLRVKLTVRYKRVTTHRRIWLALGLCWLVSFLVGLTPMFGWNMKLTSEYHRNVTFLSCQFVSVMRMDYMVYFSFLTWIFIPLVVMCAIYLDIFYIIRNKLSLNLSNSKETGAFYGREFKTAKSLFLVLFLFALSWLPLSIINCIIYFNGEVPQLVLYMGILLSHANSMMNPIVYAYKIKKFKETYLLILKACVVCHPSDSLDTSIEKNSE

[2] = test system: HCE (human ciliary epithelial) cell line, NPE cells; assay: Cell volume (shrinkage) of NPE cells in isosmotic solution, Coulter Counter, 5 μM gramicidin; type: cell-based; conditions: for effect of A3 antagonist on adenosine-stimulated isotonic shrinkage: 300 nM MRS-1097, 100 nM MRS-1191, 100 nM MRS-1523, 10 μM adenosine; for effect of A3 antagonist on IB-MECA-stimulated isotonic shrinkage: 2 min preincubation, MRS-1097 300 nM, MRS-1191 100 nM, 100 nM IB-MECA
Method: A 0.5-ml aliquot of the HCE cell suspension in DMEM was added to 20 ml of each test solution, which contained (in mM): 110.0 NaCl, 15.0HEPES [4-(2-hydroxyethyl)-1-piperazineethanesulfonic acid], 2.5 CaCl2, 1.2 MgCl2, 4.7 KCl, 1.2 KH2PO4, 30.0 NaHCO3, and 10.0 glucose, at a pH of 7.4 and osmolality of 298-305 mOsm. Parallel aliquots of cells were studied on the same day. One aliquot usually served as a control, and the others were exposed to different experimental conditions at the time of suspension. The same amount of solvent vehicle (dimethylformamide, DMSO or ethanol) was always added to the control and experimental aliquots. The sequence of studying the suspensions was varied to preclude systematic time-dependent artifacts (Civan et al., Exp. Eye Res. 54:181-191, 1992).
Cell volumes of isosmotic suspensions were measured with a Coulter Counter (model ZBI-Channelyzer II), using a 100-μm aperture (Civan et al., supra., 1994). As previously described (Wax et al., supra., 1993), the cell volume (vC) of the suspension was taken as the peak of the distribution function. Cell shrinkage was fit as a function of time (t) to a monoexponential function:
vC=v∞+(v0−v∞)−[e^−(t−t^0^)/τ] {1}
where v∞ is the steady-state cell volume, v0 is the cell volume at the first point (t0) of the time course to be fit, and τ is the time constant of the shrinkage. For purposes of data reduction, the data were normalized to the first time point, taken to be 100% isotonic volume. Fits were obtained by nonlinear least-squares regression analysis, permitting both v∞and τ to be variables.
In order to differentiate among these receptors, the experiments were repeated in the present study using a series of agonists and antagonists selective for these receptors. As we wished to identify the effects of these receptors specifically on Cl^− channels, 5 μM gramicidin D was included in all solutions to eliminate any potential contribution from K^+ channels. This ionophore readily partitions into plasma membranes to form a cation-selective pore, and is widely used for studying volume regulation (Hoffmann et al., in Interaction of Cell Volume and Cell Function, Lang et al., eds., Springer, Heidelberg, Germany, pp. 188-248, (ACEP Series 14), 1993)). Under these conditions, release of cell Cl^− becomes the rate-limiting factor in both hypo-(Civan et al., Exp. Eye Res. 54:181-191, 1992) and isoosmotic cell shrinkage (Carre et al., supra., 1997).

human A2 receptors = conditions: read-out: Ki for binding to human A2 receptors; cited from earlier work
A1 and A2A receptors = assay: Estimated occupancy of A1 and A2A receptors at the concentrations used; conditions: at the concentrations used (300 nM MRS 1097, 100 nM MRS 1191, 100 nM MRS 1523)

T2 sequence (P30543 whole entry): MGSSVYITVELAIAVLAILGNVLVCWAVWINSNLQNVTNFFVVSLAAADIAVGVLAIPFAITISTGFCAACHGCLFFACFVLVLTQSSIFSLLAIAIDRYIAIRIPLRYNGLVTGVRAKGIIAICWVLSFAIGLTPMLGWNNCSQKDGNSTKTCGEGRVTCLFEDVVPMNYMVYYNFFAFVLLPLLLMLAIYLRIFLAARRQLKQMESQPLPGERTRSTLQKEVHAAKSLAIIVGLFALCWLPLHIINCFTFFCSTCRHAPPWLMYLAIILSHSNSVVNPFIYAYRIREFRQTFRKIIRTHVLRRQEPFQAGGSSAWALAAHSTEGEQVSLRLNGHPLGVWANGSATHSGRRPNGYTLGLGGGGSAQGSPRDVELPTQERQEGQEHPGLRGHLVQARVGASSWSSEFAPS

Row | Compound | Ki (A1 receptors) [µM] | half-life at 1.27 mM [1] [min] | percent displacement of specific radioligand binding at rat A2A receptors (A2A receptors) [%] | Ki (human A3 receptor) [µM] | effect of A3 antagonist on adenosine-stimulated isotonic shrinkage [2] | effect of A3 antagonist on adenosine-stimulated isotonic shrinkage ([2]; listed as MRS 1097) | effect of A3 antagonist on IB-MECA-stimulated isotonic shrinkage [2] | effect of A3 antagonist on IB-MECA-stimulated isotonic shrinkage ([2]; listed as MRS 1097) | Ki (human A2 receptors) [µM] | share of the A1 and A2A receptors that could have been occupied (A1 and A2A receptors) [%]
1 | CCOC(=O)C1=C(c2ccccc2)N(C)C(CC)=C(C(=O)SCC)C1CC (stereo not shown) [Compound 24, 1-Methyl-2,4-diethyl-3-(ethylsulfanylcarbonyl)5-ethyloxycarbonyl-6-phenyl-1,4-dihydropyridine] | 28.4 ± 2.5 | ~47 | 48±7 | 0.379 ± 0.122 | – | – | – | – | – | –
2 | 3-ethyl 5-benzyl-2-methyl-6-phenyl-4-styryl-1,4-(±)-dihydropyridine-3,5-dicarboxylate [MRS-1097] | – | – | – | – | prevented the characteristic shrinkage | blocked the shrinkage | prevented shrinkage | blocked the isoomotic shrinkage; also recorded: prevented the subsequent response; also recorded: prevent the shrinkage | 4.77 | < 20
